Patent US20260262643A1, “HERBICIDAL BENZOXAZINES” (FMC CORPORATION, priority 2022, published 2026)

Legend:
barnyardgrass [1] = assay: Test A preemergence; assay type: in vivo, Echinochloa crusgalli; details: visual injury after 10 days, 0 to 100 scale, 0 is no effect, 100 is complete control
How it was run: (§1)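 Greenhouse pot test, 10 days. Compound (non-phytotoxic solvent, surfactant) sprayed on soil at seeding or on seedlings at one- to two-leaf stage. Visual injury rated 0–100 against untreated plants.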

blackgrass [2] = assay: Test A preemergence; assay type: in vivo, Alopecurus myosuroides; details: 0 to 100 scale
How it was run: as §1

corn [3] = assay: Test A preemergence; assay type: in vivo, Zea mays; details: 0 to 100 scale
How it was run: as §1

foxtail, giant [4] = assay: Test A preemergence; assay type: in vivo, Setaria faberi; details: 0 to 100 scale
How it was run: as §1

kochia [5] = assay: Test A preemergence; assay type: in vivo, Bassia scoparia; details: 0 to 100 scale
How it was run: as §1

oat, wild [6] = assay: Test A preemergence; assay type: in vivo, Avena fatua; details: 0 to 100 scale
How it was run: as §1

pigweed, palmer [7] = assay: Test A preemergence; assay type: in vivo, Amaranthus palmeri; details: 0 to 100 scale
How it was run: as §1

ragweed [8] = assay: Test A preemergence; assay type: in vivo, Ambrosia artemisiifolia; details: 0 to 100 scale
How it was run: as §1

ryegrass, Italian [9] = assay: Test A preemergence; assay type: in vivo, Lolium multiflorum; details: 0 to 100 scale
How it was run: as §1

soybean [10] = assay: Test A preemergence; assay type: in vivo, Glycine max; details: 0 to 100 scale
How it was run: as §1

wheat [11] = assay: Test A preemergence; assay type: in vivo, Triticum aestivum; details: 0 to 100 scale
How it was run: as §1

barnyardgrass [12] = assay: Test A postemergence; assay type: in vivo, Echinochloa crusgalli; details: postemergence, 10 days; for Barnyardgrass plant response rating: 125 g ai/ha, 0 to 100 scale, 0 no effect, 100 complete control; for Plant response rating, Barnyardgrass: 500 g ai/ha, visual injury, 0 to 100 scale (0 no effect, 100 complete control)
How it was run: as §1

blackgrass [13] = assay: Test A postemergence; assay type: in vivo, Alopecurus myosuroides; details: postemergence, 10 days; for Blackgrass plant response rating: 125 g ai/ha, 0 to 100 scale, 0 no effect, 100 complete control; for Plant response rating, Blackgrass: 500 g ai/ha, visual injury, 0 to 100 scale (0 no effect, 100 complete control)
How it was run: as §1

corn [14] = assay: Test A postemergence; assay type: in vivo, Zea mays; details: postemergence, 10 days; for Corn plant response rating: 125 g ai/ha, 0 to 100 scale, 0 no effect, 100 complete control; for Plant response rating, Corn: 500 g ai/ha, visual injury, 0 to 100 scale (0 no effect, 100 complete control)
How it was run: as §1

foxtail, giant [15] = assay: Test A postemergence; assay type: in vivo, Setaria faberi; details: postemergence, 10 days
How it was run: as §1

kochia [16] = assay: Test A postemergence; assay type: in vivo, Bassia scoparia; details: postemergence, 10 days; for Kochia plant response rating: 125 g ai/ha, 0 to 100 scale, 0 no effect, 100 complete control; for Plant response rating, Kochia: 500 g ai/ha, visual injury, 0 to 100 scale (0 no effect, 100 complete control)
How it was run: as §1

oat, wild [17] = assay: Test A postemergence; assay type: in vivo, Avena fatua; details: postemergence, 10 days; for Oat, Wild plant response rating: 125 g ai/ha, 0 to 100 scale, 0 no effect, 100 complete control; for Plant response rating, Oat, Wild: 500 g ai/ha, visual injury, 0 to 100 scale (0 no effect, 100 complete control)
How it was run: as §1

pigweed, palmer [18] = assay: Test A postemergence; assay type: in vivo, Amaranthus palmeri; details: postemergence, 10 days; for Pigweed, Palmer plant response rating: 125 g ai/ha, 0 to 100 scale, 0 no effect, 100 complete control; for Plant response rating, Pigweed, Palmer: 500 g ai/ha, visual injury, 0 to 100 scale (0 no effect, 100 complete control)
How it was run: as §1

ragweed [19] = assay: Test A postemergence; assay type: in vivo, Ambrosia artemisiifolia; details: postemergence, 10 days; for Ragweed plant response rating: 125 g ai/ha, 0 to 100 scale, 0 no effect, 100 complete control; for Plant response rating, Ragweed: 500 g ai/ha, visual injury, 0 to 100 scale (0 no effect, 100 complete control)
How it was run: as §1

ryegrass, Italian [20] = assay: Test A postemergence; assay type: in vivo, Lolium multiflorum; details: postemergence, 10 days; for Ryegrass, Italian plant response rating: 125 g ai/ha, 0 to 100 scale, 0 no effect, 100 complete control; for Plant response rating, Ryegrass, Italian: 500 g ai/ha, visual injury, 0 to 100 scale (0 no effect, 100 complete control)
How it was run: as §1

soybean [21] = assay: Test A postemergence; assay type: in vivo, Glycine max; details: postemergence, 10 days; for Soybean plant response rating: 125 g ai/ha, 0 to 100 scale, 0 no effect, 100 complete control; for Plant response rating, Soybean: 500 g ai/ha, visual injury, 0 to 100 scale (0 no effect, 100 complete control)
How it was run: as §1

wheat [22] = assay: Test A postemergence; assay type: in vivo, Triticum aestivum; details: postemergence, 10 days; for Wheat plant response rating: 125 g ai/ha, 0 to 100 scale, 0 no effect, 100 complete control; for Plant response rating, Wheat: 500 g ai/ha, visual injury, 0 to 100 scale (0 no effect, 100 complete control)
How it was run: as §1

galium = assay: Test A postemergence; assay type: in vivo, Galium aparine; details: postemergence, 10 days; for Galium plant response rating: 125 g ai/ha, 0 to 100 scale, 0 no effect, 100 complete control; for Plant response rating, Galium: 500 g ai/ha, visual injury, 0 to 100 scale (0 no effect, 100 complete control)
How it was run: as §1

horseweed = assay: Test A postemergence; assay type: in vivo, Erigeron canadensis; details: postemergence, 10 days; for Horseweed plant response rating: 125 g ai/ha, 0 to 100 scale, 0 no effect, 100 complete control; for Plant response rating, Horseweed: 500 g ai/ha, visual injury, 0 to 100 scale (0 no effect, 100 complete control)
How it was run: as §1

barnyardgrass [23] = assay: Test B flooded paddy test; assay type: in vivo, Echinochloa crus-galli; details: 250 g ai/ha, Flood, 13 days, 0 to 100 scale (0 no effect, 100 complete control)
How it was run: (§2)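 Percent weed or crop control, judged by eye on a 0–100 scale 13 days post-treatment, reflects compound added to a 3 cm flood maintained over 2-leaf plants in the greenhouse. Missing entries are marked with a dash.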

ducksalad = assay: Test B flooded paddy test; assay type: in vivo, Heteranthera limosa; details: 250 g ai/ha, Flood, 13 days, 0 to 100 scale (0 no effect, 100 complete control)
How it was run: as §2

rice = assay: Test B flooded paddy test; assay type: in vivo, Oryza sativa; details: 250 g ai/ha, Flood, 13 days, 0 to 100 scale (0 no effect, 100 complete control)
How it was run: as §2

sedge, umbrella = assay: Test B flooded paddy test; assay type: in vivo, Cyperus difformis; details: 250 g ai/ha, Flood, 13 days, 0 to 100 scale (0 no effect, 100 complete control)
How it was run: as §2

[24] = 500 g ai/ha, visual injury after 10 days, 0 is no effect, 100 is complete control

CC(C)c1ncn(-c2ccc(OC(F)F)c(C(=O)N3C[C@H](C)Oc4c(Cl)cccc43)c2)n1 [Compound 143]
100: Plant response rating, Barnyardgrass (barnyardgrass [1]; 500 g ai/ha) | Plant response rating, Foxtail, Giant (foxtail, giant [4]; 125 g ai/ha) | Plant response rating, Foxtail, Giant (foxtail, giant [4]; [24]) | Plant response rating, Kochia (kochia [5]; [24]) | Plant response rating, Pigweed, Palmer (pigweed, palmer [7]; 125 g ai/ha) | Plant response rating, Pigweed, Palmer (pigweed, palmer [7]; [24]) | Plant response rating, Soybean (soybean [10]; 125 g ai/ha) | Plant response rating, Soybean (soybean [10]; [24]) | Soybean plant response rating (soybean [21]) | Plant response rating, Soybean (soybean [21]) | Galium plant response rating (galium) | Plant response rating, Galium (galium)
0: Plant response rating, Rice (rice)
80: Plant response rating, Kochia (kochia [5]; 125 g ai/ha) | Plant response rating, Ryegrass, Italian (ryegrass, Italian [9]; 125 g ai/ha) | Blackgrass plant response rating (blackgrass [13]) | Plant response rating, Pigweed, Palmer (pigweed, palmer [18]) | Plant response rating, Ryegrass, Italian (ryegrass, Italian [20])
70: Plant response rating, Blackgrass (blackgrass [2]; [24]) | Plant response rating, Oat, Wild (oat, wild [17]) | Plant response rating, Ragweed (ragweed [19])
90: Plant response rating, Barnyardgrass (barnyardgrass [1]; 125 g ai/ha) | Plant response rating, Oat, Wild (oat, wild [6]; [24]) | Plant response rating, Ragweed (ragweed [8]; [24]) | Plant response rating, Ryegrass, Italian (ryegrass, Italian [9]; [24]) | Plant response rating, Wheat (wheat [11]; 125 g ai/ha) | Plant response rating, Barnyardgrass (barnyardgrass [12]) | Plant response rating, Blackgrass (blackgrass [13]) | Corn plant response rating (corn [14]) | Plant response rating, Corn (corn [14]) | Foxtail, Giant plant response rating (foxtail, giant [15]; 125 g ai/ha, 0 to 100 scale, 0 no effect, 100 complete control) | Plant response rating, Foxtail, Giant (foxtail, giant [15]; 500 g ai/ha, visual injury, 0 to 100 scale (0 no effect, 100 complete control)) | Kochia plant response rating (kochia [16]) | Plant response rating, Kochia (kochia [16])
98: Plant response rating, Sedge, Umbrella (sedge, umbrella)
30: Plant response rating, Ragweed (ragweed [8]; 125 g ai/ha) | Wheat plant response rating (wheat [22])
10: Plant response rating, Corn (corn [3]; 125 g ai/ha) | Oat, Wild plant response rating (oat, wild [17])
50: Plant response rating, Wheat (wheat [11]; [24]) | Barnyardgrass plant response rating (barnyardgrass [12]) | Ryegrass, Italian plant response rating (ryegrass, Italian [20]) | Plant response rating, Horseweed (horseweed)
20: Horseweed plant response rating (horseweed)
60: Plant response rating, Oat, Wild (oat, wild [6]; 125 g ai/ha) | Pigweed, Palmer plant response rating (pigweed, palmer [18])
40: Plant response rating, Blackgrass (blackgrass [2]; 125 g ai/ha) | Plant response rating, Corn (corn [3]; [24]) | Ragweed plant response rating (ragweed [19]) | Plant response rating, Wheat (wheat [22]) | Plant response rating, Barnyardgrass (barnyardgrass [23])
65: Plant response rating, Ducksalad (ducksalad)

Cc1ccc(-n2cnc(CO)n2)cc1C(=O)N1C[C@H](C)Oc2c(Cl)cccc21 [Compound 148]
65: Plant response rating, Sedge, Umbrella (sedge, umbrella)
20: Plant response rating, Kochia (kochia [5]; 125 g ai/ha) | Plant response rating, Oat, Wild (oat, wild [6]; 125 g ai/ha) | Oat, Wild plant response rating (oat, wild [17])
25: Plant response rating, Barnyardgrass (barnyardgrass [23])
15: Plant response rating, Rice (rice)
100: Plant response rating, Barnyardgrass (barnyardgrass [1]; 500 g ai/ha) | Plant response rating, Foxtail, Giant (foxtail, giant [4]; 125 g ai/ha) | Plant response rating, Foxtail, Giant (foxtail, giant [4]; [24]) | Plant response rating, Pigweed, Palmer (pigweed, palmer [7]; 125 g ai/ha) | Plant response rating, Pigweed, Palmer (pigweed, palmer [7]; [24]) | Plant response rating, Ryegrass, Italian (ryegrass, Italian [9]; [24]) | Plant response rating, Soybean (soybean [10]; [24]) | Plant response rating, Pigweed, Palmer (pigweed, palmer [18]) | Soybean plant response rating (soybean [21]) | Plant response rating, Soybean (soybean [21]) | Plant response rating, Galium (galium)
40: Blackgrass plant response rating (blackgrass [13])
60: Plant response rating, Corn (corn [3]; 125 g ai/ha) | Plant response rating, Corn (corn [3]; [24])
55: Plant response rating, Ducksalad (ducksalad)
90: Plant response rating, Blackgrass (blackgrass [2]; [24]) | Plant response rating, Ragweed (ragweed [8]; [24]) | Plant response rating, Wheat (wheat [11]; [24]) | Plant response rating, Blackgrass (blackgrass [13]) | Plant response rating, Corn (corn [14]) | Pigweed, Palmer plant response rating (pigweed, palmer [18]) | Galium plant response rating (galium)
80: Plant response rating, Blackgrass (blackgrass [2]; 125 g ai/ha) | Plant response rating, Oat, Wild (oat, wild [6]; [24]) | Plant response rating, Ryegrass, Italian (ryegrass, Italian [9]; 125 g ai/ha) | Plant response rating, Barnyardgrass (barnyardgrass [12]) | Corn plant response rating (corn [14]) | Plant response rating, Kochia (kochia [16]) | Plant response rating, Ryegrass, Italian (ryegrass, Italian [20])
30: Plant response rating, Ragweed (ragweed [8]; 125 g ai/ha) | Plant response rating, Wheat (wheat [11]; 125 g ai/ha) | Barnyardgrass plant response rating (barnyardgrass [12]) | Wheat plant response rating (wheat [22])
70: Plant response rating, Barnyardgrass (barnyardgrass [1]; 125 g ai/ha) | Plant response rating, Kochia (kochia [5]; [24]) | Plant response rating, Soybean (soybean [10]; 125 g ai/ha) | Plant response rating, Oat, Wild (oat, wild [17]) | Plant response rating, Ragweed (ragweed [19]) | Plant response rating, Wheat (wheat [22])
50: Kochia plant response rating (kochia [16]) | Ragweed plant response rating (ragweed [19]) | Ryegrass, Italian plant response rating (ryegrass, Italian [20]) | Horseweed plant response rating (horseweed) | Plant response rating, Horseweed (horseweed)
